Where a name gives a salt, the structure may show the parent alone. Read-outs that look alike come from different tables or passages of the source.
Biological target: T1, DltA enzyme (Streptococcus agalactiae serotype III, UniProt Q8VM67)
T1 construct: His-tag (from pET100 vector) (N); made in house; host or cells: E. coli BL21 (DE3) Star
T1 sequence (Q8VM67 1-511): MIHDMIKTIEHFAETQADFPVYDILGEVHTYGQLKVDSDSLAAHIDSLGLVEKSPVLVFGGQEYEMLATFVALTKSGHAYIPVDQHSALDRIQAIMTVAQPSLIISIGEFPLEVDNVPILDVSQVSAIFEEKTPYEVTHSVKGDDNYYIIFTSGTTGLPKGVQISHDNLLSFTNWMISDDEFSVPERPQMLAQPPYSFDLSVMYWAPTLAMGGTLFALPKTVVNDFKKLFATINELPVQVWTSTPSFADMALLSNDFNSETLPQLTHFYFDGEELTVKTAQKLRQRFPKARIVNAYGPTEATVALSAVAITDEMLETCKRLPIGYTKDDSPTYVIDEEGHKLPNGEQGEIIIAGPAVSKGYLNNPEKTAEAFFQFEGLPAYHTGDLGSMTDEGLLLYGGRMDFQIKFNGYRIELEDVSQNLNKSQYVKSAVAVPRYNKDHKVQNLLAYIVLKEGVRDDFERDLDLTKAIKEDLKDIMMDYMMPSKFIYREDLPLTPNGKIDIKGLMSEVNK
Experiment: DltA HTS assays (luminescent / fluorescent), inhibition of DltA enzymatic activity in vitro
Format: biochemical, S. agalactiae
Source text: The compounds effect on DltA enzyme has been based on the measure of the inhibition of DltA activity in vitro.
To this end, a recombinant protein Dlta was expressed and purified after cloning of the gene of S. agalatiae as described below:
Methods 1: DltA HTS Assays
The assay described below makes use of dithiothreitol (DTT) instead of DltC as reactive thiol in the catalyzed reaction. In fact, the inventors have shown that DTT, but also Coenzyme A and N-Acetylcysteamine are all thiols able to replace efficiently DltC. In addition, contrary to the prior art, radioactivity is not used: all the assays are based either on luminescent ATP detection, or on fluorescent AMP detection. They are easily amenable to miniaturized formats and fast readouts as required by HTS.
The assay buffer “AB” contains 50 mM Hepes pH8.0, 10 mM MgCl2, 50 mM KCl, 0.012% Triton-X100. The following components are added in a white polystyrene Costar plate up to a final volume of 30 μL: 3 μL DMSO, or inhibitor dissolved in DMSO and 27 μL DltA enzyme and DTT in AB. After 30 min of pre-incubation at room temperature, 30 μL of Substrates mix in AB are added in each well to a final volume of 60 μL. This reaction mixture is then composed of 10 nM DltA (produced in house from S. agalactiae), 0.5 mM D-Alanine (Sigma), 0.5 μM ATP (Sigma) and 1 mM DTT (Biochemika) in assay buffer. After 90 min of incubation at room temperature, 30 μL of the revelation mix are added to a final volume of 90 μL, including the following constituents at the respective final concentrations: 2 nM luciferase (Sigma), 30 μM D-luciferin (Sigma), 100 μM N-acetylcysteamine (Aldrich). Luminescence intensity is immediately measured on an Analyst-HT (Molecular Devices) and converted into inhibition percentages. For IC50 (Inhibitory Concentration 50%) determinations, the inhibitor is added at 6 to 10 different concentrations, and the related inhibitions are fitted to a classical langmuir equilibrium model using XLFIT (IDBS).
The assay buffer “AB” contains 50 mM Hepes pH8.0, 10 mM MgCl2, 50 mM KCl, 0.012% Triton-X100. The following components are added in a black polystyrene Costar plate up to a final volume of 50 μL: 5 μL DMSO, or inhibitor dissolved in DMSO and 45 μL DltA enzyme and DTT in AB. After 30 min of pre-incubation at room temperature, 50 μL of Substrates-revelation mix in AB are added in each well to a final volume of 100 μL. This reaction mixture is then composed of 5 nM DltA (produced in house from S. agalactiae), 0.5 mM D-Alanine (Sigma), 10 μM ATP (Sigma), 1 mM DTT (Biochemika), 10 nM Adenylate kinase (produced in house), 5 u/mL Pyruvate Kinase (Sigma), 50 μM phosphoenolpyruvate (Sigma), 5 u/mL Lactate deshydrogenase (Sigma) and 3 μM NADH (Sigma) in assay buffer. Fluorescence intensity of NADH (λex=360 nm, λem=520 nm) is immediately measured kinetically by a Fluostar Optima (BMG). Inhibition percentages are derived from fitted initial velocities. For IC50 determinations, the inhibitor is added at 6 to 10 different concentrations, and the related inhibitions are fitted to a classical langmuir equilibrium model using XLFIT (IDBS). FIG. 2 represents the data obtained using this method.
The capacity of compounds to inhibit DltA enzymatic activity was assessed using the DltA HTS assays described in method 1.

[1] = Table 1, DltA inhibition, HTS assays of method 1, read-out: IC50

Structure (SMILES) | IC50 [1] | also measured
OCCCNc1nc2cc(C(F)(F)F)ccc2n2c(-c3cn[nH]c3)cnc12 [Example 17, 3-{[1-(1H-pyrazol-4-yl)-7-(trifluoromethyl)imidazo[1,2-a]quinoxalin-4-yl]amino}propan-1-ol] | 0.51 µM | –
O=C(O)c1cc(-c2cnc3c(NCCCO)nc4cc(C(F)(F)F)ccc4n23)[nH]n1 [Example 48, 5-{4-[(3-hydroxypropyl)amino]-7-(trifluoromethyl)imidazo[1,2-a]quinoxalin-1-yl}-1H-pyrazole-3-carboxylic acid] | 5 µM | –
OCCCNc1nc2cc(C(F)(F)F)ccc2n2ccnc12 [Example 1, 3-{[7-(trifluoromethyl)imidazo[1,2-a]quinoxalin-4-yl]amino}propan-1-ol] | 3.2 µM | –
CCSc1ccc2c(c1)nc(NCCCO)c1nccn12 [Example 6] | 6.5 µM | –
CS(=O)(=O)Nc1ccc(-c2cnc3c(NCCCO)nc4cc(C(F)(F)F)ccc4n23)cc1 [Example 23, N-{4-[4-(3-Hydroxy-propylamino)-7-trifluoromethyl-imidazo[1,2-a]quinoxalin-1-yl]phenyl}-methanesulfonamide Sodium salt] | – | IC50 (IC50 (μM), Table 1, DltA inhibition, HTS assays of method 1): 0.21 µM
OCCCNc1nc2cc(C(F)(F)F)ccc2n2c(-c3ccccc3)cnc12 [Example 11, 3-{[1-phenyl-7-(trifluoromethyl)imidazo[1,2-a]quinoxalin-4-yl]amino}propan-1-ol] | 0.73 µM | –
OCCCNc1nc2cc(C(F)(F)F)ccc2n2c(-c3ccc(N4CCOCC4)cc3)cnc12 [Example 14, 3-{[1-(4-N-morpholinophenyl)-7-(trifluoromethyl)imidazo[1,2-a]quinoxalin-4-yl]amino}propan-1-ol] | 0.46 µM | –
OCCCNc1nc2cc(C(F)(F)F)ccc2n2c(-c3cc(O)n[nH]3)cnc12 [Example 37, 3-({1-(3-hydroxy-1H-pyrazol-5-yl)-7-(trifluoromethyl)imidazo[1,2-a]quinoxalin-4-yl}amino)propan-1-ol] | 0.16 µM | –
CS(=O)(=O)N1CC=C(c2cnc3c(NCCCO)nc4cc(C(F)(F)F)ccc4n23)CC1 [Example 29, 3-[1-(1-methanesulfonyl-1,2,3,6-tetrahydro-pyridin-4-yl)-7-trifluoromethyl-imidazo[1,2-a]quinoxalin-4-ylamino]-propan-ol] | 0.41 µM | –
OCCCNc1nc2cc(-c3ccccc3C(F)(F)F)ccc2n2ccnc12 [Example 5, 3-({7-[2-(trifluoromethyl)phenyl]imidazo[1,2-a]quinoxalin-4-yl}amino)propan-1-ol] | 0.56 µM | –
OCCCNc1nc2cc(C(F)(F)F)ccc2n2c(I)cnc12 [Example 3, 3-{[1-iodo-7-(trifluoromethyl)imidazo[1,2-a]quinoxalin-4-yl]amino}propan-1-ol] | 0.62 µM | –
OCCCNc1nc2cc(F)c(F)cc2n2ccnc12 [Example 57, 3-[(7,8-difluoroimidazo[1,2-a]quinoxalin-4-yl)amino]propan-1-ol] | 57 µM | –
Cn1cnc2c(NCCCO)nc3cc(C(F)(F)F)ccc3c21 [Example 25, 3-{[1-methyl-7-(trifluoromethyl)-1H-imidazo[4,5-c]quinolin-4-yl]amino}propan-1-ol] | 17 µM | –
OCCCNc1nc2cc(C(F)(F)F)c(Br)cc2n2ccnc12 [Example 52, 3-(8-bromo-7-trifluoromethyl-imidazo[1,2-a]quinoxalin-4-ylamino)-propan-1-ol] | 8.7 µM | –
CNC(=O)NCc1cnc2c(NCCCO)nc3cc(C(F)(F)F)ccc3n12 [Example 43, 1-({4-[(3-hydroxypropyl)amino]-7-(trifluoromethyl)imidazo[1,2-a]quinoxalin-1-yl}methyl)-3-methylurea] | 1.2 µM | –
OCCCNc1nc2cc(C(F)(F)F)ccc2n2c(-c3cc(-c4ccccc4)n[nH]3)cnc12 [Example 32, 3-({1-[3-phenyl-1H-pyrazol-5-yl]-7-(trifluoromethyl)imidazo[1,2-a]quinoxalin-4-yl}amino)propan-1-ol] | 0.042 µM | –
CS(=O)(=O)Nc1ccc(-c2cnc3c(NCCCO)nc4cc(C(F)(F)F)ccc4n23)cc1 [Example 12, N-{4-[4-(3-Hydroxy-propylamino)-7-trifluoromethyl-imidazo[1,2-a]quinoxalin-1-yl]-phenyl}-methanesulfonamide] | 0.087 µM | –
OCCCNc1nc2cc(OC(F)(F)F)ccc2n2ccnc12 [Example 7, 3-{[7-(trifluoromethoxy)imidazo[1,2-a]quinoxalin-4-yl]amino}propan-1-ol] | 2.2 µM | –
Cc1n[nH]c(-c2cnc3c(NCCCO)nc4cc(OC(F)(F)F)ccc4n23)n1 [Example 55] | 0.025 µM | –
O=P(O)(O)OCCCNc1nc2cc(C(F)(F)F)ccc2n2c(-c3ccn[nH]3)cnc12 [Example 58, Phosphoric acid mono-{3-[1-(2H-pyrazol-3-yl)-7-trifluoromethyl-imidazo[1,2-a]quinoxalin-4-ylamino]-propyl}ester, disodium salt] | 19 µM | –
OCCCNc1nc2cc(C(F)(F)F)ccc2n2c(-c3ncc[nH]3)cnc12 [Example 46, 3-{[1-(1H-imidazol-2-yl)-7-(trifluoromethyl)imidazo[1,2-a]quinoxalin-4-yl]amino}propan-1-ol] | 3.5 µM | –
CC(=O)Nc1cccc(-c2cnc3c(NCCCO)nc4cc(C(F)(F)F)ccc4n23)c1 [Example 8, N-{3-[4-(3-Hydroxy-propylamino)-7-trifluoromethyl-imidazo[1,2-a]quinoxalin-1-yl]-phenyl}-acetamide] | 0.12 µM | –
OCCCNc1nc2cc(C(F)(F)F)ccc2n2c(CNCc3ccccc3)cnc12 [Example 44, 3-({1-[(benzylamino)methyl]-7-(trifluoromethyl)imidazo[1,2-a]quinoxalin-4-yl}amino)propan-1-ol] | 6.1 µM | –
NCc1cnc2c(NCCCO)nc3cc(C(F)(F)F)ccc3n12 [Example 45, 3-{[1-(aminomethyl)-7-(trifluoromethyl)imidazo[1,2-a]quinoxalin-4-yl]amino}propan-1-ol] | 5.5 µM | –
COc1ccc(-c2cc(-c3cnc4c(NCCCO)nc5cc(C(F)(F)F)ccc5n34)[nH]n2)cc1 [Example 31, 3-({1-[1H-pyrazol-3-(4-methoxyphenyl)-5-yl]-7-(trifluoromethyl)imidazo[1,2-a]quinoxalin-4-yl}amino)propan-1-ol] | – | IC50: 0.79 µM
NCc1ccc(-c2cnc3c(NCCCO)nc4cc(C(F)(F)F)ccc4n23)cc1 [Example 18, 3-({1-[4-(aminomethyl)phenyl]-7-(trifluoromethyl)imidazo[1,2-a]quinoxalin-4-yl}amino)propan-1-ol] | 0.24 µM | –
COc1ccc(-c2cnc3c(NCCCO)nc4cc(C(F)(F)F)ccc4n23)cn1 [Example 13, 3-{[1-(6-methoxypyridin-3-yl)-7-(trifluoromethyl)imidazo[1,2-a]quinoxalin-4-yl]amino}propan-1-ol] | 0.48 µM | –

From US8513250B2 (Laboratoire Biodim, priority 2007, dated 2013)
